What was measured:
[1] = target: T1, MtPrpR81–486 (Mycobacterium tuberculosis, UniProt O06581)
T1 construct: gene prpR

[2] = target: the molecule itself; assay: SEC

CC(C)(COP(=O)(O)OP(=O)(O)OC[C@H]1O[C@@H](n2cnc3c(N)ncnc32)[C@H](O)[C@@H]1OP(=O)(O)O)[C@@H](O)C(=O)NCCC(=O)NCCS [Coenzyme A]
X-ray crystal structure of co-purified ligand; LC-HRMS of extracted ligand [1]: the predominant CoA was built into all protein chains

B1: MtPrpR_(81–486) (Mycobacterium tuberculosis PrpR, Rv1129c, residues 81-486, N-terminal His6-tag) (domain or fragment)
chain: DARLVADLSDVFTDIGVEHAVSGAQIEEFVARMPEVGHSLVAVHRRLRAATEELEGYRSRATAETELPPARPMPFEEVRDFFYDRNNYIHDLDMAAERMFTESGMRTGGLDIQLAELMRDRFGISVVIDDNLPDTAKRRYHPDTKVLRVAHWLMPGQRAFQIATQLALVGQSDLISSIVATDDQLSTEARGVARIGLANYFAGAFLLPYREFHRAAEQLRYDIDLLGRRFGVGFETVCHRLSTLQRPRQRGIPFIFVRTDKAGNISKRQSATAFHFSRVGGSCPLWVVHDAFAQPERIVRQVAQMPDGRSYFWVAKTTAADGLGYLGPHKNFAVGLGCDLAHAHKLVYSTGVVLDDPSTEVPIGAGCKICNRTSCAQRAFPYLGGRVAVDENAGSSLPYSSTEQSV
notes: also called native PrpR_(81–486); wild-type MtPrpR_(81–486); not shown: His6, N-terminal, kept
stoichiometry N [2]: 4

From paper PMC6765138 (Nucleic Acids Research, 2019)
